In PMC12627933, “A First-In-Human Study of the SUMOylation Inhibitor Subasumstat in Patients with Advanced/Metastatic Solid Tumors or Relapsed/Refractory Hematologic Malignancies” (Cancer Research Communications, 2025):

Columns and labels:
[1] = tested on: lymphoma and pancreatic cancer xenografts; set-up: method as in PMID 33631934; conditions: cited from earlier work
SUMO2/3 conjugates = test: SUMOylation pathway inhibition: decrease in SUMO2/3 conjugates in blood lymphocytes, skin and tumor; format: in vivo, human
Method: Blood samples for subasumstat–SUMO adduct formation and SUMO2/3 inhibition assessments were collected before dose and at 1, 4, and 8 hours after the infusion on C1D1 and C1D8. Blood samples for additional biomarker analyses were collected before dose on C1D1 and C1D8 and at 4, 8, and 24 hours after infusion on C1D1 and C1D8. Skin biopsies (used as surrogate tissue for solid tumors) were collected at screening and on C1D8 at 2 hours (±30 minutes) after end of infusion, and tumor biopsies were collected at screening and cycle 2 day 8 (C2D8; +7 days; whenever possible). In blood samples, a custom flow cytometry assay was utilized for detecting target engagement and SUMOylated protein levels in lymphocytes (including T-, B-, and NK-cell subsets). The assay included a PE-conjugated antibody specifically recognizing the SUMO–subasumstat adduct (MIL-113, anti–cysteinyl-TAK-981, Epitomics; refs. [14], [15], [22]) and an AF488-conjugated antibody recognizing SUMO2/3 conjugates (MBL International, cat. #M114-3, RRID: AB_592769). Peripheral blood cells were lysed/fixed, permeabilized (BD Biosciences), and stained with MIL-113 and M114-3 and with antibodies against CD45, CD3, CD19, CD16/CD56, and CD14. IHC assays for SUMO–subasumstat adduct and SUMO2/3 inhibition in skin biopsies and tumors were performed using MIL-113 and M114-3 antibodies. Activation of the IFNI pathway was assessed in peripheral blood by analysis of gene expression data (PanCancer IO 360 panel by NanoString for phase I and whole-transcriptome RNA sequencing data for phase II). Type I IFN gene signature was computed using geometric mean of the following genes: CCL2, CXCL10, DDX58, IRF7, ISG15, STAT1, and STAT2. These seven IFNI-regulated genes were selected prior to the trial, based on in vitro studies of the effect of subasumstat on human blood from 10 healthy donors analyzed on the NanoString PanCancer IO 360 panel. Plasma chemokines and cytokines were measured using the MesoScale Discovery platform (pro-inflammatory and chemokine panels, BioAgilytix). For assessment of NK- and T-cell activation, cells were suspended in buffer and incubated with the following monoclonal antibodies: APC-H7 mouse anti–human CD45 (BD Biosciences, cat. #560274), APC mouse anti–human CD69 (BD Biosciences, cat. #555533), BV421 mouse anti–human CD56 (BD Biosciences, cat. #562751), mouse anti–human CD16 PerCP-Cy5.5 (BD Biosciences, cat. #338440), BV510 mouse anti–human CD4 (BD Biosciences, cat. #563094), BV605 mouse anti–human CD8 (BD Biosciences, cat. #564116), and Alexa Fluor 700 anti–mouse CD3 antibody (BioLegend, cat. #100215), prior to assessment by flow cytometry using the BD Scientific FACSCanto flow cytometer (RRID: SCR_018055). Tumor PD-L1 expression level was assessed in paired tumor biopsies using the 22C3 PD-L1 IHC assay; combined positive score (CPS) was calculated for baseline and on-treatment tumor samples. The immune landscape in the tumor microenvironment (TME) was assessed using an integrated RNAscope and 27-marker MultiOmyx immunofluorescence panel.

macrophages and NK cells = tested on: macrophages and NK cells; set-up: method as in PMID 35226739; conditions: IFNI-dependent innate immune activation; cited from earlier work

Cc1sc(C(=O)c2cncnc2N[C@@H]2C[C@H](COS(N)(=O)=O)[C@@H](O)C2)cc1[C@@H]1NCCc2ccc(Cl)cc21 [subasumstat]
Antitumor activity ([1]; immunocompromised mice): shows antitumor activity
SUMOylation in tumors ([1]; xenograft models): inhibits SUMOylation in tumors
Duration of SUMO2/3 inhibition (SUMO2/3 conjugates; peripheral blood lymphocytes): at least 8 hours
Time to SUMO2/3 inhibition after end of infusion (SUMO2/3 conjugates; peripheral blood lymphocytes): ≤ 1 h
Dose from which SUMO2/3 inhibition was observed (SUMO2/3 conjugates; peripheral blood lymphocytes, dose-dependent): ≥ 40 mg
SUMO2/3 inhibition in tumor samples (SUMO2/3 conjugates; post-dose tumor samples, except two MSS colorectal cancer and one NSCLC patient): observed in most post-dose samples
Dose from which reduced SUMO2/3 levels were observed in skin (SUMO2/3 conjugates; skin biopsies on C1D8): ≥ 60 mg
Killing of tumor cell targets (macrophages and NK cells): enhanced killing of tumor cell targets
